Test results from patent publication US20220289765A1, “CRYSTAL OF CARCINOGENIC FUSED KINASE INHIBITOR AND APPLICATIONS THEREOF” (Simcere Pharmaceutical Co., Ltd., priority 2019, published 2022).
Like-named read-outs stand apart in the source and are kept apart here.

Assays:
[1] = test system: Ba/F3 LMNA-NTRK1-WT stable transformant cell line; assay: Cell proliferation inhibition (CellTiter-Glo, 72 h); assay type: cell-based; details: Mus musculus, BaF3, read-out: Half Inhibitory Concentrations of Cells IC50, Ba/F3 LMNA-NTRK1-WT
Protocol: Adenosine Tri-Phosphate (ATP) is an energy carrier shared by various life activities in nature and is the smallest unit of energy storage and transfer. In CellTiter-Glo™ Live Cell Detection Kit, luciferase was used as a detection substance, and it required the involvement of ATP during luminescence. CellTiter-Glo™ reagent was added to the cell culture medium to measure a luminescence value, and the light signal was proportional to the amount of ATP in the system, and ATP was positively correlated to the number of viable cells. Therefore, by detecting the ATP content using the CellTiter-Glo Kit, cell proliferation can be detected. In this test, the cell line was Ba/F3 LMNA-NTRK1-WT stable transformant cell line, and the number of cells was 5000/well.
• a) Cells in the logarithmic growth phase were harvested and counted by using a […]. Cell viability was detected by trypan blue exclusion assay to ensure that the cell viability was above 90%. • b) The cell concentration was adjusted, and 90 μL cell suspension was added to a 96-well plate, respectively. • c) Cells in the 96-well plate were incubated overnight at 37° C., 5% CO2 and 95% humidity. […]
The data were analyzed using GraphPad Prism 5.0 software, and were fitted to obtain a dose-effect curve using a non-linear S-curve regression, and the IC50 values were calculated therefrom.

Ba/F3 LMNA-NTRK1-F589L = assay: as above; assay type: cell-based; details: Mus musculus, BaF3, read-out: Half Inhibitory Concentrations of Cells IC50, Ba/F3 LMNA-NTRK1-F589L
Ba/F3 LMNA-NTRK1-G595R = assay: as above; assay type: cell-based; details: Mus musculus, BaF3, read-out: Half Inhibitory Concentrations of Cells IC50, Ba/F3 LMNA-NTRK1-G595R
Ba/F3 SLC34A2-ROS1-WT = assay: as above; assay type: cell-based; details: Mus musculus, BaF3, read-out: Half Inhibitory Concentrations of Cells IC50, Ba/F3 SLC34A2-ROS1-WT
[2] = Pharmacokinetic test in mice; assay type: in vivo; details: male CD-1 mice; for AUC(0-t): read-out: Area under Curve AUC0-last
Protocol: The drug concentrations of the compounds in plasma at different time points were determined by LC/MS/MS method after single intravenous (IV) and intragastric (PO) administration of the compounds to 7-9 week old male CD-1 mice as the test animals. The pharmacokinetic behaviors of the compounds of the present invention in mice were studied and pharmacokinetic properties thereof were evaluated.
The compounds were prepared into clear solutions using 5% DMSO+10% solutol+85% water as a solvent for administration in IV (intravenous injection) and PO (gavage) groups. The administration dosage of each compound was 3 mg/kg for the IV group and […] for the PO group.

[3] = test system: human colon cancer cell line KM12 cells subcutaneous xenograft tumor; assay: Efficacy test in mice, KM12 subcutaneous xenograft; assay type: in vivo, BALB/c mouse; details: PO
Protocol: The in vivo efficacy of test drugs such as the compound of Formula (I) on human colon cancer cell line KM12 cells subcutaneous xenograft tumor in a BALB/c mouse model was evaluated.
The compounds were prepared into clear solutions using 5% DMSO+10% solutol+85% water as a solvent for administration in PO (gavage) groups.
The tumor diameter was measured twice a week using a vernier caliper. The formula for calculating the tumor volume is: V=0.5×a×b^2, wherein a and b represent the long diameter and the short diameter of the tumor, respectively. The antitumor efficacy of the compounds was evaluated with TGI (%), which reflects the inhibition rate of tumor growth.
Statistical analysis was performed using SPSS software based on relative tumor volume and tumor weight at the end of the experiment. Comparisons among multiple groups were analyzed by one-way ANOVA. If the variances were homogeneous (no significant difference in F-values), the analysis was performed by the Tukey's method, and if the variances were not homogeneous (significant difference in F-values), the test was performed by the Games-Howell method. P<0.05 was considered as a significant difference.

Work on O=C1NC2(CC2)COc2ncc(F)cc2[C@H]2CCON2c2ccn3ncc1c3n2 [Compound of Formula (I)] yielded an IC50 [1] of 1.26 nM, an IC50 (Ba/F3 LMNA-NTRK1-F589L) of 0.78 nM and an IC50 (Ba/F3 LMNA-NTRK1-G595R) of 6.2 nM. The IC50 (Ba/F3 SLC34A2-ROS1-WT) was 2.53 nM, the “Apparent Clearance Cl” value ([2]; IV, 3 mg/kg) was 7.2 mL/min/kg and the Vd ([2]; mouse, plasma, IV, 3 mg/kg, read-out: Apparent Distribution Volume Vd) was 0.49 L/kg. It also gave an AUC(0-t) ([2]; mouse, plasma, IV, 3 mg/kg) of 17.5 µM·h, a half-life ([2]; mouse, plasma, IV, 3 mg/kg, read-out: Half-life T1/2 (converted)) of 45 min and a bioavailability ([2]; mouse, plasma, PO (10 mL/kg [sic]) vs IV 3 mg/kg, read-out: Bioavailability F %) of 51%. For the same compound, the AUC(0-t) ([2]; mouse, plasma, PO, dosage given as 10 mL/kg) was 29.8 µM·h, the Cmax ([2]; mouse, plasma, PO, dosage given as 10 mL/kg, read-out: Peak Concentration Cmax) was 9.14 µM and the Tmax ([2]; mouse, plasma, PO, dosage given as 10 mL/kg, read-out: Time to Peak Tmax) was 30 min. It also gave a T/C ([3]; 3 mg/kg) of 33.18%, a TGI ([3]; 3 mg/kg) of 71.23% and a T/C ([3]; 15 mg/kg) of 15.63%. It also gave a TGI ([3]; 15 mg/kg) of 88.61%.
